Data reported in ChEMBL document CHEMBL4476866, “Pyrrol-1-yl benzoic acid derivatives useful as myc inhibitors” (2015).
Calls of active or inactive are those of the source. No cut-off for these calls is given here.

Key:
[1] = target: T1, Myc proto-oncogene protein (Homo sapiens, UniProt P01106); assay: Inhibition of human c-Myc assessed as reduction in c-Myc/Max/Ebox DNA complex formation using pre-formed complex of c-Myc and biotinylated DNA containing single Ebox-sequence followed by compound addition and further addition of his6-tagged c-Max and incubated for 2 hrs by AlphaScreen assay
T1 sequence (P01106 whole entry): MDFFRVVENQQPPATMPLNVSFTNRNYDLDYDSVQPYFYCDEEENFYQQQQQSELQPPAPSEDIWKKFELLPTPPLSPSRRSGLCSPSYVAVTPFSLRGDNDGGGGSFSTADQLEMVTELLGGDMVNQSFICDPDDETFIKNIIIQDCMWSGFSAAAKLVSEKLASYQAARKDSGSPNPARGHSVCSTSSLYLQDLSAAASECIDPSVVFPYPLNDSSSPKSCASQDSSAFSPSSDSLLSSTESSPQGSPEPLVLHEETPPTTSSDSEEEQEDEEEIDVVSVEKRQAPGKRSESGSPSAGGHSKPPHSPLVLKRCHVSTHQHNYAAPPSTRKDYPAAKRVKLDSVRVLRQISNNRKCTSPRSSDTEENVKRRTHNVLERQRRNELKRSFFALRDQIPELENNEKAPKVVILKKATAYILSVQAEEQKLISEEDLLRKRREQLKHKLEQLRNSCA

[2] = system: MM1.S; assay: Cytotoxic activity against human MM1S cells assessed as reduction in cell viability incubated for 3 days by ATPlite assay; assay type: functional, cell-based
[3] = system: NCI-H2171; assay: Cytotoxic activity against human NCI-H2171 cells assessed as reduction in cell viability incubated for 3 days by ATPlite assay; assay type: functional, cell-based
[4] = Induction of Ebox DNA (unknown origin) intercalation assessed as reduction in c-Myc/Max/Ebox DNA complex formation at 1.7 to 15 uM by gel shift based orthogonal biochemical assay
[5] = Induction of Ebox DNA (unknown origin) intercalation assessed as reduction in Max/Max/Ebox DNA complex formation at 1.7 to 15 uM by gel shift based orthogonal biochemical assay
[6] = Induction of Ebox DNA (unknown origin) intercalation assessed as reduction in MITF/MITF/Ebox DNA complex formation at 1.7 to 15 uM by gel shift based orthogonal biochemical assay
[7] = target: T1, Myc proto-oncogene protein; assay: Inhibition of human his6-tagged c-Myc assessed as reduction in c-Myc/Max/Ebox DNA complex formation by gel shift based orthogonal biochemical assay
[8] = target: T1, Myc proto-oncogene protein; assay: Inhibition of c-Myc in human NCI-H2171 cells assessed as reduction in c-Myc occupancy at Npm1 binding site at 100 uM incubated for 4 hrs by chromatin immunoprecipitation assay; assay type: cell-based
[9] = target: T1, Myc proto-oncogene protein; assay: Inhibition of c-Myc in human NCI-H2171 cells assessed as reduction in c-Myc occupancy at Mat2a binding site at 100 uM incubated for 4 hrs by chromatin immunoprecipitation assay; assay type: cell-based
[10] = target: T1, Myc proto-oncogene protein; assay: Inhibition of c-Myc in human NCI-H2171 cells assessed as reduction in c-Myc occupancy at Hnrnpa2b1 binding site at 100 uM incubated for 4 hrs by chromatin immunoprecipitation assay; assay type: cell-based
[11] = target: T1, Myc proto-oncogene protein; assay: Inhibition of c-Myc in human NCI-H2171 cells assessed as reduction in c-Myc occupancy at Rp123a binding site at 100 uM incubated for 4 hrs by chromatin immunoprecipitation assay; assay type: cell-based
[12] = target: Protein max (Homo sapiens) (UniProt P61244); assay: Inhibition of Max in human NCI-H2171 cells assessed as reduction in Max occupancy at Npm1 binding site at 100 uM incubated for 4 hrs by chromatin immunoprecipitation assay; assay type: cell-based
Protein max (Homo sapiens), sequence (P61244 whole entry): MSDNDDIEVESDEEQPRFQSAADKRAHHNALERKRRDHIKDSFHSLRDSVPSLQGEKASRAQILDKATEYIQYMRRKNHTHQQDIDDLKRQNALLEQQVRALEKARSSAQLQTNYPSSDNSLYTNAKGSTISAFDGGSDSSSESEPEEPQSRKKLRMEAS

[13] = target: Protein max (Homo sapiens) (UniProt P61244); assay: Inhibition of Max in human NCI-H2171 cells assessed as reduction in Max occupancy at Mat2a binding site at 100 uM incubated for 4 hrs by chromatin immunoprecipitation assay; assay type: cell-based
[14] = target: Protein max (Homo sapiens) (UniProt P61244); assay: Inhibition of Max in human NCI-H2171 cells assessed as reduction in Max occupancy at Hnrnpa2b1 binding site at 100 uM incubated for 4 hrs by chromatin immunoprecipitation assay; assay type: cell-based
[15] = target: Protein max (Homo sapiens) (UniProt P61244); assay: Inhibition of Max in human NCI-H2171 cells assessed as reduction in Max occupancy at Rp123a binding site at 100 uM incubated for 4 hrs by chromatin immunoprecipitation assay; assay type: cell-based
[16] = system: NCI-H2171; assay: Effect on c-Myc protein levels in human NCI-H2171 cells at 100 uM incubated for 4 hrs by […]; assay type: functional, cell-based
[17] = system: NCI-H2171; assay: Induction of cell differentiation in human NCI-H2171 cells assessed as effect on CD14 gene expression at 12.5 to 25 uM incubated for 4 days by qRT-PCR analysis; assay type: functional, cell-based
[18] = system: NCI-H2171; assay: Induction of cell differentiation in human NCI-H2171 cells assessed as effect on CD11c gene expression at 12.5 to 25 uM incubated for 4 days by qRT-PCR analysis; assay type: functional, cell-based
[19] = system: NCI-H2171; assay: Induction of cell differentiation in human NCI-H2171 cells assessed as effect on CCl4 gene expression at 12.5 to 25 uM incubated for 4 days by qRT-PCR analysis; assay type: functional, cell-based
[20] = system: NCI-H2171; assay: Induction of cell differentiation in human NCI-H2171 cells assessed as effect on CD11c expression at 12.5 to 25 uM incubated for 4 days by FACS analysis; assay type: functional, cell-based
[21] = Homo sapiens, NCI-H2171, 72 h, read-out: EC50
[22] = Homo sapiens, MM1.S, 72 h, read-out: EC50

Structure (SMILES) | EC50 ([2]; mm1.s) | EC50 ([3]; nci-h2171) | further results
CC(=O)Oc1cc(-n2c(C)ccc2C)ccc1C(=O)O |  |  | IC50 [1]: Not Active
Cc1ccc(C)n1-c1cccc(C(=O)c2ccccc2)c1C(=O)O | Not Active |  | 
Cc1ncc(CO)c(/C=N/NC(=O)c2ccc(C(=O)O)c(-n3c(C)ccc3C)c2)c1O | Not Active |  | 
Cc1ccc(C)n1-c1cc(C(=O)N/N=C/c2cccnc2)ccc1C(=O)O |  | Not Active | 
CN(C)c1ccc(/N=N/c2ccccc2C(=O)O)cc1 | Not Active |  | 
O=C(O)c1ccccc1-n1c2ccccc2c2ccccc21 |  |  | IC50 [1]: Not Active
COc1cccc2c1C(=O)c1c(O)c3c(c(O)c1C2=O)C[C@@](O)(C(=O)CO)C[C@@H]3O[C@H]1C[C@H](N)[C@H](O)[C@H](C)O1 |  |  | Activity [4]: Active; Activity [5]: Active; Activity [6]: Active
Cc1ccc(C)n1-c1cc(C(=O)NNC(=O)c2cccc(C(=O)O)c2)ccc1C(=O)O | Not Active | Not Active | 
Cc1ccc(C)n1-c1ccc(C(=O)O)c([N+](=O)[O-])c1 |  | Not Active | 
Cc1ccc(C)n1-c1cc(C(=O)O)ccc1C(=O)O |  | Not Active | IC50 ([1]; read-out: IC50): 0.788 µM
Cc1ccc(C)n1-c1cc(C(=O)N/N=C/c2ncc[nH]2)ccc1C(=O)O | Not Active |  | 
CC(=O)OCOC(=O)c1ccccc1-n1c(C)ccc1C |  |  | EC50 [3, 21]: 20.7 to 29.9 µM; EC50 [2, 22]: 52.3 to 71.4 µM
Cc1ccc(C)n1-c1cc(C(=O)N/N=C/c2ccc(N(C)C)cc2)ccc1C(=O)O |  | Not Active | 
Cc1ccc(C)n1-c1ccc(C(=O)O)c(O)c1 |  |  | EC50 [3, 21]: 189 to 517 µM; EC50 [2, 22]: 517 to 1440 µM
Cc1ccc(C)n1-c1ccccc1C(=O)O |  |  | inhibition [7]: Dose-dependent effect; inhibition [8]: Active; inhibition [9]: Active; inhibition [10]: Active; inhibition [11]: Active; inhibition [12]: inactive; inhibition [13]: inactive; inhibition [14]: inactive; inhibition [15]: inactive; inhibition [16]: inactive; Activity [17]: Active; Activity [18]: Active; Activity [19]: Active; Activity [20]: Active
Cc1ccc(C)n1-c1cc(C(=O)N/N=C/c2ccc(-c3cncnc3)cc2)ccc1C(=O)O | Not Active | Not Active | 
Cc1ccc(C)n1-c1cc(C(=O)N/N=C\c2cccc(C(=O)O)c2)ccc1C(=O)O | Not Active | Not Active | 
Cc1ccc(C)n1-c1cc(C(=O)N/N=C/c2ccc3nccnc3c2)ccc1C(=O)O | Not Active | Not Active | 
Cc1ccc(C)n1-c1cc(C(=O)N/N=C/c2ccc3cccnc3n2)ccc1C(=O)O |  | Not Active | 
Cc1ccc(C)n1-c1cc(C(=O)N2CCOCC2)ccc1C(=O)O | Not Active |  | 
Cc1ccc(C)n1-c1cc(C(=O)N/N=C\c2ccc(S(=O)(=O)O)cc2)ccc1C(=O)O | Not Active |  | 

Structure (SMILES) | EC50 ([2]; mm1.s) | EC50 ([3]; nci-h2171) | further results
Cc1cc(C)c2c(=O)c(/C=N/NC(=O)c3ccc(C(=O)O)c(-n4c(C)ccc4C)c3)coc2c1 |  | Not Active | 
COC(=O)c1ccc(-n2cccc2)cc1O |  |  | IC50 [1]: Not Active
CN1CCN(c2ccccc2C(=O)O)CC1 | Not Active |  | 
Cc1ccc(C)n1-c1ncccc1C(=O)O | Not Active |  | 
Cc1ccc(C)n1-c1cc(C(=O)N/N=C/c2cccc(B(O)O)c2)ccc1C(=O)O | Not Active | Not Active | 
CC(=O)OCOC(=O)c1ccc(C(=O)N/N=C/c2c[nH]cn2)cc1-n1c(C)ccc1C | Not Active |  | 
Cc1ccc(C)n1-c1cc(C(=O)N/N=C/c2c[nH]c3ccc(C#N)cc23)ccc1C(=O)O |  |  | EC50 [3, 21]: 3240 µM; EC50 [2, 22]: 5.75 µM
Cc1ccc(C)n1-c1cc(C(=O)N/N=C/c2cccc(C(=O)O)c2)ccc1C(=O)O | Not Active | Not Active | 
CC(=O)OCOC(=O)c1ccccc1-n1ccnc1C |  |  | IC50 [1]: Not Active
COc1ccc(/C=N/NC(=O)c2ccc(C(=O)O)c(-n3c(C)ccc3C)c2)c(OC)c1 | Not Active |  | 
CC(=O)OCOC(=O)c1ccccc1N1CCN(C)CC1 |  |  | IC50 [1]: Not Active
Cc1ccc(C)n1-c1cc(C(=O)N/N=C/c2c[nH]c3ccc(F)cc23)ccc1C(=O)O | Not Active | Not Active | 
O=C(O)c1ccccc1-n1cccc1 |  |  | inhibition [8]: inactive; inhibition [9]: inactive; inhibition [10]: inactive; inhibition [11]: inactive
Cc1ccc(C)n1-c1cc(C(=O)N/N=C/c2ccccc2N2CCOCC2)ccc1C(=O)O | Not Active | Not Active | IC50 ([1]; read-out: IC50): 7.05 µM
Cc1ccc(C)n1-c1ccc(C(=O)O)cc1O | Not Active |  | 
COc1ncc(/C=N/NC(=O)c2ccc(C(=O)O)c(-n3c(C)ccc3C)c2)c(OC)n1 | Not Active |  | 
Cc1ccc(C)n1-c1cc(C(=O)N/N=C\c2ccc(O)c(F)c2)ccc1C(=O)O | Not Active | Not Active | 
Cc1ccc(C)n1-c1cc(C(=O)N/N=C/c2cccc3ncccc23)ccc1C(=O)O | Not Active |  | 
CC(=O)OCOC(=O)c1ccc(-n2c(C)ccc2C)cc1O |  |  | EC50 [3, 21]: 2.8 to 66.1 µM; EC50 [2, 22]: 11 to 446 µM
Cc1c2ccccc2c(C)n1-c1ccccc1C(=O)O | Not Active | Not Active | 
Cc1ccc(C)n1-c1cc(C(=O)N/N=C/c2c[nH]cn2)ccc1C(=O)O | Not Active | Not Active | 

Structure (SMILES) | EC50 ([2]; mm1.s) | EC50 ([3]; nci-h2171) | further results
Cc1cc(C(=O)O)ccc1-n1c(C)ccc1C | Not Active |  | 
Cc1ccc(C)n1-c1cc(C(=O)N/N=C/c2c[nH]c3cc(F)ccc23)ccc1C(=O)O | Not Active |  | 
Cc1ccc(C)n1-c1cc(C(=O)N/N=C\c2cc(F)c(C(=O)O)c(F)c2)ccc1C(=O)O | Not Active | Not Active | 
Cc1ccc(C)n1-c1cc(C(=O)N/N=C/c2ccc(S(=O)(=O)O)o2)ccc1C(=O)O | Not Active |  | 
Cc1ccc(C)n1-c1cc(C(=O)N/N=C/c2ccc(O)cc2)ccc1C(=O)O | Not Active | Not Active | 
Cc1ccc(C)n1-c1cc(C(=O)N/N=C/c2ccc3ccccc3n2)ccc1C(=O)O |  | Not Active | 
Cc1ccc(C)n1-c1cnccc1C(=O)O |  | Not Active | 
Cc1ccc(C)n1-c1cc(C(=O)NCCc2cccc(C(=O)O)c2)ccc1C(=O)O |  |  | IC50 ([1]; read-out: IC50): 7.27 µM
Cc1cc(C(=O)N/N=C/c2ccccc2)c(C)n1-c1ccccc1C(=O)O | Not Active | Not Active | 
Cc1ccc(C)n1-c1ccc(Cl)cc1C(=O)O | Not Active |  | 
Cc1ccc(C)n1-c1c(C(=O)O)cccc1[N+](=O)[O-] |  |  | IC50 [1]: Not Active
Cc1ccc(C)n1-c1cc(C(=O)NN)ccc1C(=O)O |  |  | EC50 ([3]; nci-h2171, read-out: EC50): 0.00363 to 43.7 µM; EC50 [2, 22]: 625 to 1240 µM
COC(=O)c1ccc(-n2c(C)ccc2C)cc1O | Not Active | Not Active | 
Cc1ccc(C)n1-c1cc(C(=O)N/N=C\c2ccc(C(=O)O)s2)ccc1C(=O)O | Not Active |  | 
Cc1ccc(C)n1-c1cc(C(=O)N/N=C/c2cc(F)c(F)c(F)c2)ccc1C(=O)O | Not Active |  | 
Cc1ccc(C)n1-c1cc(C(=O)N/N=C/c2ccc(C(=O)O)o2)ccc1C(=O)O | Not Active | Not Active | 
Cc1ccc(C)n1-c1cc(C(=O)N/N=C/c2cc(C(=O)O)ccc2F)ccc1C(=O)O |  | Not Active | 
Cc1c(C)c(C)n(-c2ccccc2C(=O)O)c1C |  |  | IC50 ([1]; read-out: IC50): 83.4 µM
Cc1ccc(C)n1-c1ccccc1C(N)=O |  |  | IC50 [1]: Not Active
CC(=O)OCOC(=O)c1ccc(C(=O)N/N=C/c2ccc(O)c(O)c2O)cc1-n1c(C)ccc1C |  |  | EC50 [3, 21]: 2.23 µM; EC50 [2, 22]: 14.8 µM
